Usually Ki stands for a measure of affinity in units of concentration, obtained from inhibition or displacement.

The target in one experiment is T1, chimeric human H3 receptor (Homo sapiens, UniProt Q9Y5N1, E19D).
T1 construct: made in house; host or cells: Sf9 insect cells (baculovirus infection); P2 membrane preparation
T1 sequence (Q9Y5N1 with tags, fused parts or gaps E19D): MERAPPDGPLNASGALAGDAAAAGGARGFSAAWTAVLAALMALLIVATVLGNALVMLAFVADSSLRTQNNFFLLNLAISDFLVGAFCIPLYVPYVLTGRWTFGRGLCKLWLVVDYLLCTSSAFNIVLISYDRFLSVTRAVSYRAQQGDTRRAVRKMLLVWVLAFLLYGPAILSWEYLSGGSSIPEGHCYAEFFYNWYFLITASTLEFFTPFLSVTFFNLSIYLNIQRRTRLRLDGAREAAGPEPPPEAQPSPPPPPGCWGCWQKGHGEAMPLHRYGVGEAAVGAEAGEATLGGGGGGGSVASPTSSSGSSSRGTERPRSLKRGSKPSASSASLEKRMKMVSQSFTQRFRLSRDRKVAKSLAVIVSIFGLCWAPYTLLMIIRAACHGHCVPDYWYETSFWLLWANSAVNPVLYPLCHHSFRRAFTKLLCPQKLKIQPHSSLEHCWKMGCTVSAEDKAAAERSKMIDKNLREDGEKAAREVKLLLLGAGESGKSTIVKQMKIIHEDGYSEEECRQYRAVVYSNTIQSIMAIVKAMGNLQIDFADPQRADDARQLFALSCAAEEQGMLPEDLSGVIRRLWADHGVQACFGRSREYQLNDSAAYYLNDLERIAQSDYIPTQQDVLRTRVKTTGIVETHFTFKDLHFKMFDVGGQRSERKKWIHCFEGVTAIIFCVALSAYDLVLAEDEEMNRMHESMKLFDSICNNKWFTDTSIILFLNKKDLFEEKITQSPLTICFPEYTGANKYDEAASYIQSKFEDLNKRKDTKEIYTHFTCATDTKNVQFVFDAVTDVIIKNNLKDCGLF
Briefly: Chimeric human H3 receptor GTP binding assay (agonist-stimulated GTP-gamma35S binding, Example 7). The experiment is classed as biochemical.
Settings: not given
Summed up:
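Sf9 membranes co-expressing the chimeric receptor and heterotrimeric G-protein subunits, 35 μg protein per tube, in pH 7.4 Tris buffer with 10 μM GDP. Test compounds at 10^−10 to 10^−6 M with 1 μM histamine, 60 min at room temperature. Filter-bound GTP-gamma^35S read by scintillation; IC50 from non-linear regression of dose-response curves.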
(GTPγS is a poorly hydrolysed GTP analogue; its binding reports G protein activation.)
On to `CC(C)N1CCN(C(=O)CN2CCN(c3cccc(F)c3)CC2)CC1` [Compound 303, 1-(3-fluorophenyl)-4-[2-(4-isopropylpiperazin-1-yl)-2-oxoethyl]piperazine], for which the Ki is under 1000 nM.
The same measure, in the same setting: for `CCC(C)N1CCN(C(=O)CN2CCN(c3cccc(Cl)c3)CC2)CC1` (stereo not drawn) [Compound 873, 1-sec-butyl-4-{[4-(3-chlorophenyl)piperazin-1-yl]acetyl}piperazine] the value was under 1000 nM; for `CCN1CCN(C(=O)CN2CCN(c3ccc(OC)cc3)CC2)CC1` [Compound 843, 1-ethyl-4-{[4-(4-methoxyphenyl)piperazin-1-yl]acetyl}piperazine], under 1000 nM.

Still in this experiment, the particulars now being: "*" in Ki of Table II; assay of Example 7; read-out: Ki.
Regarding `CC(=O)c1ccc(-c2ccc(N3CCN(CC(=O)N4CCN(C5CCC5)CC4)CC3)nn2)cc1` [Compound 459, 1-[4-(6-{4-[2-(4-cyclobutylpiperazin-1-yl)-2-oxoethyl]piperazin-1-yl}pyridazin-3-yl)phenyl]ethanone], the inhibition constant (Ki) is under 1000 nM.

Still in this experiment, the particulars now being: Table II "Ki", symbol "*": Ki in the assay of Example 7; read-out: Ki.
In the case of `CCC(C)N1CCN(C(=O)CN2CCN(c3ccc(C(F)(F)F)cc3)CC2)CC1` (stereo not drawn) [Compound 854, 1-sec-butyl-4-({4-[4-(trifluoromethyl)phenyl]piperazin-1-yl}acetyl)piperazine], the Ki is under 1000 nM.
Still for that read-out and setting: the figure for `CCc1ccc(-c2cnc(N3CCN(CC(=O)N4CCN(C5CCC5)CC4)CC3)cn2)cc1` [Compound 930, 2-{4-[2-(4-cyclobutylpiperazin-1-yl)-2-oxoethyl]piperazin-1-yl}-5-(4-ethylphenyl)pyrazine] is under 1000 nM; for `Cc1ccc(F)c(-c2cnc(N3CCN(CC(=O)N4CCN(C5CCC5)CC4)CC3)cn2)c1` [Compound 921, 2-{4-[2-(4-cyclobutylpiperazin-1-yl)-2-oxoethyl]piperazin-1-yl}-5-(2-fluoro-5-methylphenyl)pyrazine] it is under 1000 nM.
For `CCC(C)N1CCN(C(=O)CN2CCN(c3ccc(Cl)cc3)CC2)CC1` (stereo not drawn) [Compound 879, 1-sec-butyl-4-{[4-(4-chlorophenyl)piperazin-1-yl]acetyl}piperazine], the Ki was under 1000 nM.
For the compound `CCC(C)N1CCN(C(=O)CN2CCN(c3ccc(F)c(C(F)(F)F)c3)CC2)CC1` (stereo not drawn) [Compound 856, 1-sec-butyl-4-({4-[4-fluoro-3-(trifluoromethyl)phenyl]piperazin-1-yl}acetyl)piperazine], the Ki is under 1000 nM.

Still in this experiment, the particulars now being: Table II, "*" in Ki; assay of Example 7; read-out: Ki.
Consider `COc1ccccc1-c1ccc(N2CCN(CC(=O)N3CCN(C4CCC4)CC3)CC2)cc1` [Compound 712, 1-cyclobutyl-4-{[4-(2′-methoxybiphenyl-4-yl)piperazin-1-yl]acetyl}piperazine], for which the Ki was under 1000 nM.
For `CC1CCCN1C(=O)c1ccc(N2CCN(CC(=O)N3CCN(C4CCC4)CC3)CC2)nc1` (stereo not drawn) [Compound 652, 1-cyclobutyl-4-[(4-{5-[(2-methylpyrrolidin-1-yl)carbonyl]pyridin-1-yl}piperazin-1-yl)acetyl]piperazine], the Ki was under 1000 nM.
For the compound `Cc1cccc(C)c1-c1ccc(N2CCN(CC(=O)N3CCN(C4CCC4)CC3)CC2)cc1` [Compound 697, 1-cyclobutyl-4-{[4-(2′,6′-dimethylbiphenyl-4-yl)piperazin-1-yl]acetyl}piperazine], the Ki is under 1000 nM.
Regarding `O=C(CN1CCN(c2ccc(C(=O)N3CCCC3)cc2)CC1)N1CCN(C2CCC2)CC1` [Compound 603, 1-cyclobutyl-4-({4-[4-(pyrrolidin-1-ylcarbonyl)phenyl]piperazin-1-yl}acetyl)piperazine], the Ki is under 1000 nM.

The same experiment, now with this note: Table II; assay of Example 7; "*" in Ki; read-out: Ki.
Regarding `CC(C)c1cccc(-c2ccc(N3CCN(CC(=O)N4CCN(C5CCC5)CC4)CC3)nn2)c1` [Compound 1013, 3-{4-[2-(4-cyclobutylpiperazin-1-yl)-2-oxoethyl]piperazin-1-yl}-6-(3-isopropylphenyl) pyridazine], the Ki was under 1000 nM.
With `O=C(CN1CCN(c2ccc(-c3ccccc3)nn2)CC1)N1CCN(C2CCC2)CC1` [Compound 1002, 3-{4-[2-(4-cyclobutylpiperazin-1-yl)-2-oxoethyl]piperazin-1-yl}-6-phenylpyridazine], the inhibitory constant (Ki) was under 1000 nM.
As to `COc1ccc(Cl)cc1-c1ccc(N2CCN(CC(=O)N3CCN(C4CCC4)CC3)CC2)nn1` [Compound 995, 3-(5-chloro-2-methoxyphenyl)-6-{4-[2-(4-cyclobutylpiperazin-1-yl)-2-oxoethyl]piperazin-1-yl}pyridazine], the inhibitory constant (Ki) is under 1000 nM.
Regarding `CCc1cccc(-c2ccc(N3CCN(CC(=O)N4CCN(C5CCC5)CC4)CC3)nn2)c1` [Compound 1019, 3-{4-[2-(4-cyclobutylpiperazin-1-yl)-2-oxoethyl]piperazin-1-yl}-6-(3-ethylphenyl)pyridazine], the Ki was under 1000 nM.
For `O=C(CN1CCN(c2ccc(-c3ccc(Cl)c(F)c3)nn2)CC1)N1CCN(C2CCC2)CC1` [Compound 990, 3-(4-chloro-3-fluorophenyl)-6-{4-(2-(4-cyclobutylpiperazin-1-yl)-2-oxoethyl]piperazin-1-yl}pyridazine], the Ki was under 1000 nM.

Staying with this experiment, now noted: assay of Example 7; "*" in Ki of Table II; read-out: Ki.
Turning to `CCCC(C)C(=O)NC1CCN(CC(=O)N2CCN(C3CCC3)CC2)CC1` (stereo not drawn) [Compound 1210, N-{1-[2-(4-cyclobutylpiperazin-1-yl)-2-oxoethyl]piperidin-4-yl}-2-methylpentanamide], the inhibition constant (Ki) is under 1000 nM.
On the same count and under the same terms, for `O=C(NC1CCCC1)c1ccc(N2CCN(CC(=O)N3CCN(C4CCC4)CC3)CC2)cc1` [Compound 1141, 4-{4-[2-(4-cyclobutylpiperazin-1-yl)-2-oxoethyl]piperazin-1-yl}-N-cyclopentylbenzamide] the value was under 1000 nM; for `CCSc1ccc(C(=O)NC2CCN(CC(=O)N3CCN(C4CCC4)CC3)C2)cc1` (stereo not drawn) [Compound 1242, N-{1-[2-(4-cyclobutylpiperazin-1-yl)-2-oxoethyl]pyrrolidin-3-yl}-4-(ethylthio)benzamide], under 1000 nM.

Still in this experiment, the particulars now being: assay of Example 7; symbol * in column headed Ki of Table II; read-out: Ki.
`CCCN(CC1CC1)C1CCN(CC(=O)N2CCN(C3CCCCC3)CC2)CC1` [Compound 440, 1-[2-(4-cyclohexylpiperazin-1-yl)-2-oxoethyl]-N-(cyclopropylmethyl)-N-propylpiperidin-4-amine]: the inhibitory constant (Ki) is under 1000 nM.
Turning to `O=C(CN1CCC2(CC1)C(=O)Nc1ccccc12)N1CCN(C2CCC2)CC1` [Compound 433, 1′-[2-(4-cyclobutylpiperazin-1-yl)-2-oxoethyl]spiro[indole-3,4′-piperidin]-2(1H)-one], the inhibition constant Ki is under 1000 nM.
Still for that read-out and setting: the figure for `COc1ccc(N2CCN(CC(=O)N3CCN(C(C)C)CC3)CC2)cc1OC` [Compound 285, 1-(3,4-dimethoxyphenyl)-4-[2-(4-isopropylpiperazin-1-yl)-2-oxoethyl]piperazine] is under 1000 nM.
As for `COc1cc(Br)c(CC(=O)N2CCN(CC(=O)N3CCN(C4CCC4)CC3)CC2)cc1OC` [Compound 378, 1-[(2-bromo-4,5-dimethoxyphenyl)acetyl]-4-[2-(4-cyclobutylpiperazin-1-yl)-2-oxoethyl]piperazine], the Ki was under 1000 nM.
Regarding `CC(=O)c1ccc(N2CCN(CC(=O)N3CCN(C4CCC4)CC3)CC2)nc1` [Compound 371, 1-(6-{4-[2-(4-cyclobutylpiperazin-1-yl)-2-oxoethyl]piperazin-1-yl}pyridin-3-yl)ethanone], the inhibition constant (Ki) is under 1000 nM.
Regarding `CC1CN(c2ccc(C(F)(F)F)cn2)CCN1CC(=O)N1CCN(C2CCC2)CC1` (stereo not drawn) [Compound 427, 1-[2-(4-cyclobutylpiperazin-1-yl)-2-oxoethyl]-2-methyl-4-[5-(trifluoromethyl)pyridin-2-yl]piperazine], the inhibition constant Ki is under 1000 nM.

(Values after US7851474B2, “Dipiperazinyl ketones and related analogues” (Neurogen Corporation, priority 2005, dated 2010).)
